Measured values: the supplement of paper PMC10307832

Columns and labels:
Test in all cases: relative viability (nuclei count vs DMSO), 5 days (fraction); higher = more cells survive
[1] = tested on: A-427
Summary of the method: (§1)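 Lung cancer cell lines in 1536-well plates were dosed by pin tool the day after seeding, either with one drug alone or with a fixed anchor-drug dose plus five library-drug doses (not always all listed) in √10 steps. After 5 days, cells were fixed and their nuclei stained in one step (final 0.05% Triton X-100, 1% formaldehyde, 1 ug/ml Hoechst), then counted on 4× images. Relative viability is the nuclei count in treated wells divided by that in vehicle wells. Values are medians of duplicate plates.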

[2] = tested on: COR-L23
Summary of the method: as §1

[3] = tested on: ChaGo-K-1
Summary of the method: as §1

[4] = tested on: EMC-BAC-2
Summary of the method: as §1

[5] = tested on: HARA
Summary of the method: as §1

[6] = tested on: HCC-15
Summary of the method: as §1

[7] = tested on: HCC-366
Summary of the method: as §1

[8] = tested on: HCC-78
Summary of the method: as §1

[9] = tested on: LC-2-ad
Summary of the method: as §1

[10] = tested on: LK-2
Summary of the method: as §1

[11] = tested on: NCI-H1650
Summary of the method: as §1

[12] = tested on: NCI-H1734
Summary of the method: as §1

[13] = tested on: NCI-H1793
Summary of the method: as §1

[14] = tested on: NCI-H1944
Summary of the method: as §1

[15] = tested on: NCI-H1993
Summary of the method: as §1

[16] = tested on: NCI-H2009
Summary of the method: as §1

[17] = tested on: NCI-H2023
Summary of the method: as §1

[18] = tested on: NCI-H2228
Summary of the method: as §1

[19] = tested on: NCI-H23
Summary of the method: as §1

[20] = tested on: NCI-H2405
Summary of the method: as §1

[21] = tested on: NCI-H838
Summary of the method: as §1

[22] = tested on: SK-LU-1
Summary of the method: as §1

[23] = tested on: UMC-11
Summary of the method: as §1

Compound `Clc1ccc(Nc2nnc(Cc3ccncc3)c3ccccc23)cc1` [Vatalanib] + CC(=O)Nc1cccc(-n2c(=O)n(C3CC3)c(=O)c3c(Nc4ccc(I)cc4F)n(C)c(=O)c(C)c32)c1 [Trametinib] (partner 0.02 µM) has a relative viability ([1]; first compound 0.04 µM) of 0.741, a relative viability ([1]; first compound 0.1265 µM) of 0.743 and a relative viability ([1]; first compound 0.4 µM) of 0.867. It also gave a relative viability ([1]; first compound 4 µM) of 0.73, a relative viability ([2]; first compound 0.04 µM) of 0.606 and a relative viability ([2]; first compound 0.1265 µM) of 0.587. The relative viability ([2]; first compound 0.4 µM) was 0.721, the relative viability ([2]; first compound 1.265 µM) was 0.578 and the relative viability ([2]; first compound 4 µM) was 0.534. It also gave a relative viability ([3]; first compound 0.04 µM) of 0.86, a relative viability ([3]; first compound 0.1265 µM) of 0.823 and a relative viability ([3]; first compound 0.4 µM) of 0.928. For the same compound, the relative viability ([3]; first compound 1.265 µM) was 0.877, the relative viability ([3]; first compound 4 µM) was 0.881 and the relative viability ([4]; first compound 0.04 µM) was 0.902. It also gave a relative viability ([4]; first compound 0.1265 µM) of 0.879, a relative viability ([4]; first compound 0.4 µM) of 0.908 and a relative viability ([4]; first compound 4 µM) of 0.944. For the same compound, the relative viability ([5]; first compound 0.04 µM) was 0.687, the relative viability ([5]; first compound 0.1265 µM) was 0.728 and the relative viability ([5]; first compound 0.4 µM) was 0.606. For the same compound, the relative viability ([5]; first compound 1.265 µM) was 0.677, the relative viability ([5]; first compound 4 µM) was 0.909 and the relative viability ([6]; first compound 0.04 µM) was 0.392. It also gave a relative viability ([6]; first compound 0.1265 µM) of 0.412, a relative viability ([6]; first compound 0.4 µM) of 0.404 and a relative viability ([6]; first compound 1.265 µM) of 0.365. It also gave a relative viability ([6]; first compound 4 µM) of 0.365, a relative viability ([7]; first compound 0.04 µM) of 0.393 and a relative viability ([7]; first compound 0.1265 µM) of 0.294. For the same compound, the relative viability ([7]; first compound 0.4 µM) was 0.372, the relative viability ([7]; first compound 1.265 µM) was 0.306 and the relative viability ([7]; first compound 4 µM) was 0.299. For the same compound, the relative viability ([8]; first compound 0.04 µM) was 0.729, the relative viability ([8]; first compound 0.1265 µM) was 0.794 and the relative viability ([8]; first compound 0.4 µM) was 0.809. For the same compound, the relative viability ([8]; first compound 1.265 µM) was 0.822, the relative viability ([8]; first compound 4 µM) was 0.694 and the relative viability ([9]; first compound 0.04 µM) was 0.97. It also gave a relative viability ([9]; first compound 0.1265 µM) of 0.77, a relative viability ([9]; first compound 0.4 µM) of 0.965 and a relative viability ([9]; first compound 1.265 µM) of 0.919. The relative viability ([9]; first compound 4 µM) was 0.892, the relative viability ([10]; first compound 0.04 µM) was 0.677 and the relative viability ([10]; first compound 0.1265 µM) was 0.682. For the same compound, the relative viability ([10]; first compound 0.4 µM) was 0.774, the relative viability ([10]; first compound 1.265 µM) was 0.876 and the relative viability ([10]; first compound 4 µM) was 0.667. It also gave a relative viability ([11]; first compound 0.04 µM) of 0.598, a relative viability ([11]; first compound 0.1265 µM) of 0.532 and a relative viability ([11]; first compound 0.4 µM) of 0.306. The relative viability ([11]; first compound 1.265 µM) was 0.656, the relative viability ([11]; first compound 4 µM) was 0.508 and the relative viability ([12]; first compound 0.04 µM) was 0.731. The relative viability ([12]; first compound 0.1265 µM) was 0.673, the relative viability ([12]; first compound 0.4 µM) was 0.705 and the relative viability ([12]; first compound 1.265 µM) was 0.655. It also gave a relative viability ([12]; first compound 4 µM) of 0.684, a relative viability ([13]; first compound 0.04 µM) of 0.372 and a relative viability ([13]; first compound 0.1265 µM) of 0.494. It also gave a relative viability ([13]; first compound 0.4 µM) of 0.424, a relative viability ([13]; first compound 1.265 µM) of 0.388 and a relative viability ([13]; first compound 4 µM) of 0.425. It also gave a relative viability ([14]; first compound 0.04 µM) of 0.42, a relative viability ([14]; first compound 0.1265 µM) of 0.373 and a relative viability ([14]; first compound 0.4 µM) of 0.438. The relative viability ([14]; first compound 1.265 µM) was 0.425, the relative viability ([14]; first compound 4 µM) was 0.386 and the relative viability ([15]; first compound 0.04 µM) was 0.539. It also gave a relative viability ([15]; first compound 0.1265 µM) of 0.452, a relative viability ([15]; first compound 0.4 µM) of 0.54 and a relative viability ([15]; first compound 1.265 µM) of 0.459. It also gave a relative viability ([15]; first compound 4 µM) of 0.49, a relative viability ([16]; first compound 0.04 µM) of 0.32 and a relative viability ([16]; first compound 0.1265 µM) of 0.251. The relative viability ([16]; first compound 0.4 µM) was 0.325, the relative viability ([16]; first compound 1.265 µM) was 0.307 and the relative viability ([16]; first compound 4 µM) was 0.263. It also gave a relative viability ([17]; first compound 0.04 µM) of 0.5, a relative viability ([17]; first compound 0.1265 µM) of 0.529 and a relative viability ([17]; first compound 0.4 µM) of 0.477. It also gave a relative viability ([17]; first compound 1.265 µM) of 0.503, a relative viability ([17]; first compound 4 µM) of 0.517 and a relative viability ([18]; first compound 0.04 µM) of 0.542. The relative viability ([18]; first compound 0.1265 µM) was 0.467, the relative viability ([18]; first compound 0.4 µM) was 0.666 and the relative viability ([18]; first compound 1.265 µM) was 0.782. For the same compound, the relative viability ([18]; first compound 4 µM) was 0.44, the relative viability ([19]; first compound 0.04 µM) was 0.308 and the relative viability ([19]; first compound 0.1265 µM) was 0.296. It also gave a relative viability ([19]; first compound 0.4 µM) of 0.356, a relative viability ([19]; first compound 1.265 µM) of 0.363 and a relative viability ([19]; first compound 4 µM) of 0.419. It also gave a relative viability ([20]; first compound 0.04 µM) of 0.696, a relative viability ([20]; first compound 0.1265 µM) of 0.568 and a relative viability ([20]; first compound 0.4 µM) of 0.683. It also gave a relative viability ([20]; first compound 4 µM) of 0.557, a relative viability ([21]; first compound 0.04 µM) of 0.575 and a relative viability ([21]; first compound 0.1265 µM) of 0.539. The relative viability ([21]; first compound 0.4 µM) was 0.657, the relative viability ([21]; first compound 1.265 µM) was 0.462 and the relative viability ([21]; first compound 4 µM) was 0.509. The relative viability ([22]; first compound 0.04 µM) was 0.59, the relative viability ([22]; first compound 0.1265 µM) was 0.54 and the relative viability ([22]; first compound 0.4 µM) was 0.666. It also gave a relative viability ([22]; first compound 1.265 µM) of 0.533, a relative viability ([22]; first compound 4 µM) of 0.599 and a relative viability ([23]; first compound 0.04 µM) of 0.761. For the same compound, the relative viability ([23]; first compound 0.1265 µM) was 0.769, the relative viability ([23]; first compound 0.4 µM) was 0.418 and the relative viability ([23]; first compound 1.265 µM) was 0.688. The relative viability ([23]; first compound 4 µM) was 0.847.
